Legend:
[1] = biological target: T1, Cannabinoid receptor 1 (Homo sapiens, UniProt P21554); assay: Inverse agonist activity at human CB1 receptor expressed in CHOK1 cells co-expressing Galphaq16 assessed as apparent equilibrium constant after 90 secs by […]-4 AM dye-based FLIPR assay; format: cell-based
[2] = biological target: T1, Cannabinoid receptor 1; assay: Displacement of [3H]-CP55940 from human CB1 receptor expressed in CHO cell membranes
[3] = biological target: Cannabinoid receptor 2 (Homo sapiens, UniProt P34972); assay: Displacement of [3H]-CP55940 from human CB2 receptor expressed in CHO cell membranes
Cannabinoid receptor 2, sequence (P34972 whole entry): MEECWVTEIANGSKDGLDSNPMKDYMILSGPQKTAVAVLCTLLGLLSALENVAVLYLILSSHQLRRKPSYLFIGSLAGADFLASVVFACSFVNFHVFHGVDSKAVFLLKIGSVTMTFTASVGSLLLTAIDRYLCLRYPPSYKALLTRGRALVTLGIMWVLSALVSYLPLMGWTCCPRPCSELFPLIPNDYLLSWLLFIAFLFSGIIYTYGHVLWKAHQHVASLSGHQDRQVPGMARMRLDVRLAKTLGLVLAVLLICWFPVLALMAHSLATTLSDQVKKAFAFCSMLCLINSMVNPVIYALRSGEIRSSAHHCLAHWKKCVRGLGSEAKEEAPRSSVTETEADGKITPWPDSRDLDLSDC

[4] = species on record: Homo sapiens; assay: Selectivity ratio of Ki for displacement of [3H]-CP55940 from human CB2 receptor expressed in CHO cell membranes to Ki for displacement of [3H]-CP55940 from human CB1 receptor expressed in CHO cell membranes
[5] = Half life in human liver microsomes at 1 uM by mass mass spectrometric method; format: ADME, Microsome; conditions: microsomes, 1 µM
[6] = Intrinsic clearance in human liver microsomes at 1 uM incubated for up to 120 mins by mass mass spectrometric method; format: ADME, Microsome; conditions: microsomes, 2 h, 1 µM
[7] = Cmax in C57BL6 mouse plasma at […], po by LC-MS/MS analysis; format: ADME, organism-based; parameters: dose 2.5 mg/kg, route oral
[8] = Ratio of Cmax in brain to plasma in C57BL6 mouse at […], po by LC-MS/MS analysis; format: ADME, organism-based
[9] = Half life in C57BL6 mouse plasma at […], po by LC-MS/MS analysis; format: ADME, organism-based
[10] = biological target: T1, Cannabinoid receptor 1; assay: Inverse agonist activity at human CB1 receptor expressed in CHOK1 cells co-expressing Galphaq16 assessed as inhibition of calcium mobilization after 90 secs by […]-4 AM dye-based FLIPR assay; format: functional, cell-based
[11] = Drug uptake in C57BL6 mouse brain at […], po by LC-MS/MS analysis; format: ADME, organism-based; conditions: in vivo
[12] = Permeability across apical to basolateral side in MDCK-MDR1 cells at 10 uM incubated for 1 hr by mass spectrometric method; format: ADME, cell-based, Canis lupus familiaris; conditions: dog, mdck-mdr1, 1 h
[13] = Lipophilicity, log D of compound; format: physicochemical; conditions: octanol/water
[14] = Cmax in C57BL6 mouse plasma at 0.3 mg/kg, po by LC-MS/MS analysis; format: ADME, organism-based; parameters: dose 0.3 mg/kg, route oral

T1 sequence (P21554 whole entry): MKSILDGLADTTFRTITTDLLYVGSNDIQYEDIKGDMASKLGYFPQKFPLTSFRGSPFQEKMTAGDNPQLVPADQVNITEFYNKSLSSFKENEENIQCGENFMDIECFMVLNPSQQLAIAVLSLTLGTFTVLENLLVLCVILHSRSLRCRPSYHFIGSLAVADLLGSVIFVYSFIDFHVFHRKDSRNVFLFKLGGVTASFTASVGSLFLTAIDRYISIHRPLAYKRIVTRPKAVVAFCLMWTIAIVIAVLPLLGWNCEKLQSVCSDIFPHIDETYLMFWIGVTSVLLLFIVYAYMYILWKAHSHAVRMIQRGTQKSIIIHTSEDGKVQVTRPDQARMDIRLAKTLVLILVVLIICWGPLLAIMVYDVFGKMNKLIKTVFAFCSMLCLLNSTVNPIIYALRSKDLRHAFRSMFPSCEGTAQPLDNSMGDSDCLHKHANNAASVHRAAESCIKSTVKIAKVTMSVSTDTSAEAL

Work on `O=S(=O)(NC1CCN(c2ncnc3c2nc(-c2ccccc2Cl)n3-c2ccc(OC(F)F)nc2)CC1)c1ccc(F)c(F)c1` yielded a Ke(app) [1] of 1.6 nM, a Ki [2] of 3 nM and a Ki [3] of 860 nM. The Ratio Ki [4] was 290, the t1/2 [5] was 4.57 h and the CLH [6] was 5 µL/min/mg. It also gave a Cmax [7] of 62 ng/mL, a Ratio [8] of 0.18 and a half-life [9] of 1.6 h. For the same compound, the EC50 [10] was 132 nM and the Drug uptake [11] was under 20%.

Compound `O=S(=O)(NC1CCN(c2ncnc3c2nc(-c2ccccc2Cl)n3-c2ccc(Cl)cc2)CC1)c1ccc(F)c(F)c1` has a Ke(app) [1] of 0.5 nM, a Ki [2] of 1.7 nM and a Ki [3] of over 10000 nM. For the same compound, the Ratio Ki [4] was over 5000, the permeability [12] was under 0.1% and the Cmax [7] was 12 ng/mL. It also gave a Ratio [8] of 0.31 and a half-life [9] of 5.3 h.

For `O=S(=O)(NC1CCN(c2ncnc3c2nc(-c2ccccc2Cl)n3-c2ccc(Cl)cc2)CC1)c1ccccc1F`, the Ke(app) [1] was 0.8 nM, the Ki [2] was 0.38 nM and the Ki [3] was 8500 nM. It also gave a Ratio Ki [4] of 22000 and an EC50 [10] of 287 nM.

`O/N=C(\c1ccc(F)cc1)C1CCN(c2ncnc3c2nc(-c2ccccc2Cl)n3-c2ccc(Cl)cc2)CC1` (stereo in doubt; 21) gave a Ki [2] of 7 nM, a Ki ([3]; cho) of over 10000 nM and a t1/2 [5] of 1.68 h. The CLH [6] was 12 µL/min/mg.

Compound `N=C(NC1CCN(c2ncnc3c2nc(-c2ccccc2Cl)n3-c2ccc(Cl)cc2)CC1)c1ccc(F)cc1` has a Ke(app) [1] of 170 nM, a Ki [2] of 780 nM and a Ratio Ki [4] of over 7. For the same compound, the permeability [12] was 0.2%, the t1/2 [5] was 2.77 h and the CLH [6] was 8 µL/min/mg. For the same compound, the Cmax [7] was 50 ng/mL, the Ratio [8] was 0.16 and the half-life [9] was 6 h. The logD [13] was 4.1 and the Drug uptake [11] was under 20%.

Work on `O=S(=O)(NC1CCCCC1)NC1CCN(c2ncnc3c2nc(-c2ccccc2Cl)n3-c2ccc(Cl)cc2)CC1` yielded a Ke(app) [1] of 8 nM, a Ki [2] of 5 nM and a Ki [3] of 330 nM. It also gave a Ratio Ki [4] of 66 and a Cmax [14] of 4 ng/mL.

Compound `O=C(NC1CCN(c2ncnc3c2nc(-c2ccccc2Cl)n3-c2ccc(Cl)cc2)CC1)c1ccccc1F` has a Ke(app) [1] of 0.6 nM, a Ki [2] of 0.98 nM and a Ki [3] of 6000 nM. It also gave a Ratio Ki [4] of 6000, a permeability [12] of 0.1% and an EC50 [10] of 94.8 nM.

Compound `N=C(Nc1ccc(F)cc1)NC1CCN(c2ncnc3c2nc(-c2ccccc2Cl)n3-c2ccc(Cl)cc2)CC1` has a Ke(app) [1] of 300 nM and a logD [13] of 4.6.

For `Clc1ccc(-n2c(-c3ccccc3Cl)nc3c(N4CCC(Nc5ccccn5)CC4)ncnc32)cc1`, the Ke(app) [1] was 54 nM, the Ki [2] was 2.4 nM and the Ki [3] was 3100 nM. It also gave a Ratio Ki [4] of 1300, a permeability [12] of 0.1% and a Cmax [7] of 38 ng/mL. For the same compound, the Ratio [8] was 0.45 and the half-life [9] was 7.4 h.

— ChEMBL document CHEMBL4385641 (Bioorg Med Chem, 2019)
